Laboratory results from PubChem BioAssay AID1626 (SRMLSC, 2009).

System: M. tuberculosis H37Rv growth inhibition
Test: M. tuberculosis H37Rv growth inhibitors, H37Rv strain (AID 1626)
Conditions: for IC90: measured here: IC90 against H37Rv; for CC50: measured here: Vero cell cytotoxicity

Structure (SMILES) | IC50 [µM] | IC90 [µM] | CC50 [µM]
Cc1ccc(-c2nnc3sc(CCc4ccccc4)nn23)cc1 | 1.63 | 6.83 | –
Nc1[nH]n2c(=O)c3c(nc2c1N=Nc1ccc(Cl)cc1)CCCC3 | 10.7 | 21.5 | 25.4
O=C(Nc1cc(Cl)cc(Cl)c1)N1CCCC1 | 12.2 | 17.6 | > 40
COc1ccc(NCc2n[nH]nc2-c2ccccc2)cc1Cl | 25.7 | > 100 | > 40
C=CCn1c(O)c(C(CC)=Nc2ccc3c(c2)CCC3)c(=O)[nH]c1=O | 17.8 | > 100 | –
CCN(CC)C(=O)CSc1nnc2nnc3cc(Cl)ccc3n12 | 1.22 | 7.51 | 19.8
CCOC(=O)N1CCN(c2nc(N(c3ccccc3)c3ccccc3)nc(-n3ccnc3)n2)CC1 | 8.91 | 11.3 | > 40
COc1ccc(-c2oc3ccc(N4CCOCC4)cc3c2C#CC2(O)CCCCC2)cc1 | – | – | > 40
CC(C)C1N=C(c2ccc3c(c2)OCO3)CC(c2ccccc2O)N1 (centres undefined) | 10.6 | 14.3 | 26.8
Cc1coc2c1C(=O)C(=O)c1c-2ccc2c(C)cccc12 | 0.336 | 0.366 | 27.8
O=C(Nc1ccc(-c2nc3ccccc3c(=O)o2)cc1)c1ccco1 | < 0.195 | > 100 | –
CC(=O)CC1(OC(C)=O)C(=O)N(C)c2ccccc21 (centres undefined) | 5.34 | 5.89 | 24.3
COc1ccc(Cl)cc1NC(=O)C(C)N1CCN(C/C=C/c2ccccc2)CC1 (centres undefined) | 12.3 | 13.3 | –
COc1ccc(S(=O)(=O)Oc2ccc3c(c2)O/C(=C\c2cccnc2)C3=O)cc1 | 2.34 | 19.4 | –
COc1cccc(CC2(CO)CCCN(Cc3[nH]c4ccc(C)cc4c3C)C2)c1 (centres undefined) | 8.49 | 11.2 | > 40
COc1ccc(Nc2ccccc2N)cc1 | 1.05 | 2.46 | –
O=C(Nc1nnc(-c2cccs2)o1)c1cccc(Oc2ccccc2)c1 | < 0.195 | 2.67 | 34
COc1ccc(C(=O)C(CN2CCOCC2)c2ccccc2)cc1F (centres undefined) | 11.5 | 12.5 | 16.1
CCCCOC(=O)c1ccc(NC(=O)CSc2nnnn2C)cc1 | 19 | > 100 | –
Cc1ccc(Cn2c(NC(=O)c3ccco3)nc3ccccc32)cc1 | 4.08 | > 100 | > 40

Structure (SMILES) | IC50 [µM] | IC90 [µM] | CC50 [µM]
CCOC(=O)c1ccc(NC(=O)CSc2nnc(COc3ccccc3OC)n2C)cc1 | – | > 100 | –
CCOC(=O)CSc1ncnc2c1cnn2-c1ccc(Cl)cc1 | 1.03 | > 100 | –
CCOc1ccc2c3c(c(=O)oc2c1OCC)CCCC3 | 7.11 | 12.8 | –
COc1cc(-c2cc(C(=O)Nc3nc4ccccc4s3)c3ccccc3n2)cc(OC)c1OC | – | > 100 | > 40
CCOC(=O)c1ccc(NC(=O)c2nc[nH]c2C(=O)N[C@H](C)c2ccccc2)cc1 | 6.38 | 24.6 | 26
O=C(Nc1ccccc1F)C(=Cc1sc(N2CCOCC2)nc1-c1ccccc1)C(=O)Nc1ccccc1F | 51 | > 100 | > 40
Cc1nn2c(NCCCN(C)C)c3c(nc2c1-c1ccccc1)CCC3 | 45.7 | 50.1 | 23.2
CCOC(=O)c1cnc2ccc(OCC)cc2c1NCc1ccccc1 | 15.7 | 22.2 | > 40
O=C(CCSc1ccccc1)Nc1nnc(-c2ccccc2)o1 | – | > 100 | –
c1ccc(-c2nc(N3CCOCC3)c3ccccc3n2)nc1 | 5.22 | 14.5 | > 40
COc1ccc(CNCCC(c2ccc(F)cc2)c2ccc(OC(C)C)cc2)cc1OC (centres undefined) | 15.2 | 20.8 | 15.4
Cc1ccc(N2CCN(C(=O)Nc3cccc([N+](=O)[O-])c3)CC2C)cc1 (centres undefined) | 27.1 | > 100 | > 40
CCc1nnc(NC(=O)c2cccc(C(=O)Nc3nnc(CC)s3)n2)s1 | – | 1.09 | 3.62
O=C(Nc1nccs1)c1cn(-c2ccccc2)nc1-c1ccccc1 | – | > 100 | > 40
O=C1C(NS(=O)(=O)c2cccs2)=C(N2CCN(c3cccc(C(F)(F)F)c3)CC2)C(=O)c2ccccc21 | 4.12 | 7.38 | > 40
Cc1nc([N+](=O)[O-])c(Br)n1CC(=O)c1ccc(Cl)cc1 | 16.8 | 23.2 | 30.6
CCn1c(=O)c(C(=O)Nc2nc3ccccc3[nH]2)c(O)c2ccccc21 | 0.388 | 0.423 | > 40
COc1ccc(COCC(O)CN2CCC(CN3C(=O)c4cccc5cccc(c45)C3=O)CC2)cc1OC (centres undefined) | 12.9 | > 100 | > 40
COc1ccc(N2CCN(CC(=O)Nc3nc4c(s3)CC(C)CC4)CC2)cc1 (centres undefined) | 4.42 | 49.1 | –
O=C(Nc1nnc(-c2ccc3c(c2)OCCO3)o1)C1CCCCC1 | – | > 100 | –
